Results from patent US20260028336A1 (Arcus Biosciences, Inc., priority 2022, published 2026).
pEC50, pIC50: −log10 of the molar value.

What was measured:
Cbl-b = molecular target: T1, Cbl-b (Homo sapiens, UniProt Q13191); assay: Cbl-b probe displacement HTRF binding assay; conditions: 0.4 nM biotinylated Cbl-b, 150 nM BODIPY probe
T1 construct: biotin (biotinylated)
Experimental: The affinity with which compounds of the present dislcosure bind to Cbl-b was assessed using probe displacement homologous time resolved fluorescence (HTRF) assays. […] The assays were performed in assay buffer consisting of 20 mM Hepes, 150 mM NaCl, 0.01% Triton X-100, 0.5 mM TCEP, 0.01% BSA. On the day of the assay, a 20 point, 1:2 master serial dilution of each compound was prepared in DMSO to span a final concentration range of […] to 0 nM. Two hundred nanoliters of diluted compound was added to each well of a 384-well plate. Fifteen microliters of biotinylated-Cbl-b resuspended in assay buffer were added to each well and the plate incubated for 60 minutes at room temperature prior to addition of 5 μL of BODIPY™ probe in assay buffer. […] After a further 15 minutes of incubation at room temperature, 5 μl of Streptavidin-Terbium cryptate reagent at 5-fold final concentration was added to each well of the 384-well plate. Binding of a probe to Cbl-b results in an increase of HTRF signal. […] Percentage maximum activity in each test well was calculated based on DMSO (maximum activity, 0% displacement) and no protein control wells (baseline activity, 100% displacement). Binding affinity was determined from a dose response curve fitted using a standard four parameter fit equation.

Jurkat cells = assay: IL-2 secretion assay in CD3/CD28-activated Jurkat cells (AlphaLISA); assay type: cell-based; conditions: Homo sapiens, CD3/CD28 T Cell Activator, 24 h, IL-2 AlphaLISA
Experimental: Certain compounds were also evaluated in an IL-2 secretion assay. On the day of the assay, a 16 point, 1:2 master serial dilution of each compound was prepared in Opti-MEM to span a final concentration range of 10 μM to 300 pM. Assays were set up in CORNING® tissue culture-treated 384-well microplates containing 60 nL of each dilution. […] 50,000 cells/well and added to the compound plates. After a short spin (1200 rpm for 1 min), the plates were incubated at 37° C. for 1 hour. The cells were activated by adding 15 μL of IMMUNOCULT™ Human CD3/CD28 T Cell Activator ([…] Technologies) diluted in Opti-MEM. […] The AiphaLISA signal was measured using an EnVision plate reader (PerkinElmer). EC50 values were determined by fitting the data to a standard 4-parameter logistic equation.

T1 sequence (Q13191 whole entry, species assumed): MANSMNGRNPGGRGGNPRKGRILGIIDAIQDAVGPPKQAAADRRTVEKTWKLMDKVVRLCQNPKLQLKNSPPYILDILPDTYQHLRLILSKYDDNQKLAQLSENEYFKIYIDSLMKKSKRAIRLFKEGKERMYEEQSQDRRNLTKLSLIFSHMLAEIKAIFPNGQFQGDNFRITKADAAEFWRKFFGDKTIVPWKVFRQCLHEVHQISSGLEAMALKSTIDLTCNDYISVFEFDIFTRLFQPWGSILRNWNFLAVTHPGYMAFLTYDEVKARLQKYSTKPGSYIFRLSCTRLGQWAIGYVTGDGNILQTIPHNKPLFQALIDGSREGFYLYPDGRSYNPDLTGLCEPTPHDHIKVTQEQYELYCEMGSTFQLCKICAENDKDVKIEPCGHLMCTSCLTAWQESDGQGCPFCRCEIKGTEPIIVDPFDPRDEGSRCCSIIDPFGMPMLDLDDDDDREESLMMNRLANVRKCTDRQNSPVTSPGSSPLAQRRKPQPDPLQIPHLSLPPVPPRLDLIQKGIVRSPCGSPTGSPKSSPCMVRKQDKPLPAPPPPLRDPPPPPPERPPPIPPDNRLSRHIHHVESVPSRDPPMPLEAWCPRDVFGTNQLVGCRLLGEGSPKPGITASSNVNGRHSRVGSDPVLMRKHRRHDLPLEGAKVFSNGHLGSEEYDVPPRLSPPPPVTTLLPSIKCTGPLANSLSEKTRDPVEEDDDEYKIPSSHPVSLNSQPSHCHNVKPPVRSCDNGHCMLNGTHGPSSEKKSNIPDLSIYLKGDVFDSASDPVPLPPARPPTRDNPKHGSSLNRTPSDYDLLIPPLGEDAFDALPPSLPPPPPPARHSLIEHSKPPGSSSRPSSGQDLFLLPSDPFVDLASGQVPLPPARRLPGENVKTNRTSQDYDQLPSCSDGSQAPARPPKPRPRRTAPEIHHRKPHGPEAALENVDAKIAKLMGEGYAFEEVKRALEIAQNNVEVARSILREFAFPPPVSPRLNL

Compound	pIC50 (Cbl-b)	pEC50 (Jurkat cells)
C[C@H]1CCCN(Cc2cc3c(C4CC4)cn(-c4cccc(C5(c6nncn6C)CC(F)(F)C5)c4)c(=O)c3[nH]2)C1 [Example 78, 4-cyclopropyl-6-[3-[3,3-difluoro-1-(4-methyl-1,2,4-triazol-3-yl)cyclobutyl]phenyl]-2-[[(3S)-3-methylpiperidin-1-yl]methyl]-1H-pyrrolo[2,3-c]pyridin-7-one]	> 7.00	> 7.00
C[C@H]1CCCN(Cc2cc3c(C4CC4)cn(-c4cccc(C5(Cc6nncn6C)COC5)c4)c(=O)c3[nH]2)C1 [Example 75, 4-cyclopropyl-2-[[(3S)-3-methylpiperidin-1-yl]methyl]-6-[3-[3-[(4-methyl-1,2,4-triazol-3-yl)methyl]oxetan-3-yl]phenyl]-1H-pyrrolo[2,3-c]pyridin-7-one]	> 7.00	> 7.00
C[C@H]1CCCN(Cc2cc3c(C4CC4)cn(-c4cccc([C@]5(c6nncn6C(F)F)C[C@H](OC(F)F)C5)c4)c(=O)c3[nH]2)C1 [Example 151, 2—{[(S)-3-methyl-1-piperidyl]methyl}-4-cyclopropyl-6-(m-{(1r,3S)-3-difluoromethoxy-1-[4-(difluoromethyl)-4H-1,2,4-triazol-3-yl]cyclobutyl}phenyl)-1,6-dihydro-1,6-diaza-7-indenone]	> 7.00	> 7.00
C[C@H]1CCCN(Cc2cc3c(C4CC4)cn(-c4cccc(C(F)(F)c5nncn5C)c4)c(=O)c3[nH]2)C1 [Example 161, 4-cyclopropyl-6-[3-[difluoro-(4-methyl-1,2,4-triazol-3-yl)methyl]phenyl]-2-[[(3S)-3-methylpiperidin-1-yl]methyl]-1H-pyrrolo[2,3-c]pyridin-7-one]	> 7.00	6.00 to 7.00
CC1CC(c2cccc(-n3cc(C4CC4)c4cc(CN5CCC[C@H](F)C5)[nH]c4c3=O)c2)(c2nncn2C)C1 (stereo partly drawn) [Example 64, 4-cyclopropyl-2-{[(3S)-3-fluoropiperidin-1-yl]methyl}-6-{3-[(1r,3s)-3-methyl-1-(4-methyl-4H-1,2,4-triazol-3-yl)cyclobutyl]phenyl}-1H,6H,7H-pyrrolo[2,3-c]pyridin-7-one]	> 7.00	6.00 to 7.00
Cn1cnnc1C1(c2cccc(-n3cc(C4CC4)c4cc(CNC5(CF)CCC5)[nH]c4c3=O)c2)CC(F)(F)C1 [Example 89, 4-cyclopropyl-6-{3-[3,3-difluoro-1-(4-methyl-4H-1,2,4-triazol-3-yl)cyclobutyl]phenyl}-2-({[1-(fluoromethyl)cyclobutyl]amino}methyl)-1H,6H,7H-pyrrolo[2,3-c]pyridin-7-one]	> 7.00	6.00 to 7.00
C[C@H]1CCCN(Cc2cc3c(C4CC4)cn(-c4cccc([C@]5(c6nncn6C)C[C@@H](F)C5)c4)c(=O)c3[nH]2)C1 [Example 129, cis-4-cyclopropyl-6-[3-[3-fluoro-1-(4-methyl-1,2,4-triazol-3-yl)cyclobutyl]phenyl]-2-[[(3S)-3-methylpiperidin-1-yl]methyl]-1H-pyrrolo[2,3-c]pyridin-7-one]	> 7.00	> 7.00
CC1CC(c2cccc(-n3cc(C4CC4)c4cc(CO)[nH]c4c3=O)c2)(c2nncn2C)C1 (stereo not shown) [Example 8, 4-cyclopropyl-2-(hydroxymethyl)-6-[3-[3-methyl-1-(4-methyl-1,2,4-triazol-3-yl)cyclobutyl]phenyl]-1H-pyrrolo[2,3-c]pyridin-7-one]	5.30 to 6.00	5.30 to 6.00
CC1CC(c2cccc(-n3cc(C4CC4)c4cc(CNC5(C)CCC5)[nH]c4c3=O)c2)(c2nncn2C)C1 (stereo not shown) [Example 39, 4-cyclopropyl-6-{3-[3-methyl-1-(4-methyl-4H-1,2,4-triazol-3-yl)cyclobutyl]phenyl}-2-{[(1-methylcyclobutyl)amino]methyl}-1H,6H,7H-pyrrolo[2,3-c]pyridin-7-one]	> 7.00	> 7.00
CC1CC(c2cccc(-n3cc(C4CC4)c4cc(CN5[C@@H]6COC[C@H]5C6)[nH]c4c3=O)c2)(c2nncn2C)C1 (stereo partly drawn) [Example 60, 4-cyclopropyl-6-{3-[3-methyl-1-(4-methyl-4H-1,2,4-triazol-3-yl)cyclobutyl]phenyl}-2-{[(1R,5S)-3-oxa-6-azabicyclo[3.1.1]heptan-6-yl]methyl}-1H,6H,7H-pyrrolo[2,3-c]pyridin-7-one]	> 7.00	5.30 to 6.00
Cn1cnnc1[C@]1(c2cccc(-n3cc(C4CC4)c4[nH]c(=O)[nH]c4c3=O)c2)C[C@@H](C)C1 (single isomer, unassigned) [Example 118, 7-cyclopropyl-5-[3-[trans-3-methyl-1-(4-methyl-1,2,4-triazol-3-yl)cyclobutyl]phenyl]-1,3-dihydroimidazo[4,5-c]pyridine-2,4-dione]	6.00 to 7.00	< 5.30
CC1CC(c2cccc(-n3cnc4c(C(F)(F)F)c(CN5CCC[C@H](C)C5)[nH]c4c3=O)c2)(c2nncn2C)C1 (mixture of isomers) [Example 143, 6—{[(3S)-3-Methylpiperidin-1-yl]methyl}-3-{3-[(1R,3S)-3-methyl-1-(4-methyl-4H-1,2,4-triazol-3-yl)cyclobutyl]phenyl}-7-(trifluoromethyl)-3H,4H,5H-pyrrolo[3,2-d]pyrimidin-4-one]	> 7.00	6.00 to 7.00
CC1CC(c2cccc(-n3cc(C4CC4)c4cc(CN5C[C@@H]6C[C@H]5CN6C)[nH]c4c3=O)c2)(c2nncn2C)C1 (stereo partly shown) [Example 62]	6.00 to 7.00	< 5.30
CC1CC(c2cccc(-n3cc(C4CC4)c4cc(CN5CCC(F)(F)[C@H](C)C5)[nH]c4c3=O)c2)(c2nncn2C)C1 (stereo partly drawn) [Example 57, 4-cyclopropyl-2-{[(3R)-4,4-difluoro-3-methylpiperidin-1-yl]methyl}-6-{3-[3-methyl-1-(4-methyl-4H-1,2,4-triazol-3-yl)cyclobutyl]phenyl}-1H,6H,7H-pyrrolo[2,3-c]pyridin-7-one]	> 7.00	6.00 to 7.00
Cn1cnnc1C1(c2cccc(-n3cc(C4CC4)c4cc(CN5CCC6(CC6)C5)[nH]c4c3=O)c2)CC2(CC2)C1 [Example 70, 2-({5-azaspiro[2.4]heptan-5-yl}methyl)-4-cyclopropyl-6-{3-[5-(4-methyl-4H-1,2,4-triazol-3-yl)spiro[2.3]hexan-5-yl]phenyl}-1H,6H,7H-pyrrolo[2,3-c]pyridin-7-one]	> 7.00	6.00 to 7.00
Cn1cnnc1C1(c2cccc(-n3cc(C4CC4)c4cc(CNCC5(CO)CC5)[nH]c4c3=O)c2)CC(F)(F)C1 [Example 85, 4-cyclopropyl-6-{3-[3,3-difluoro-1-(4-methyl-4H-1,2,4-triazol-3-yl)cyclobutyl]phenyl}-2-[({[1-(hydroxymethyl)cyclopropyl]methyl}amino)methyl]-1H,6H,7H-pyrrolo[2,3-c]pyridin-7-one]	> 7.00	6.00 to 7.00
Cn1cnnc1C1(c2cccc(-n3cc(C4CC4)c4cc(CN5CCC(F)(F)C5)[nH]c4c3=O)c2)CC(F)(F)C1 [Example 79, 4-cyclopropyl-6-{3-[3,3-difluoro-1-(4-methyl-4H-1,2,4-triazol-3-yl)cyclobutyl]phenyl}-2-[(3,3-difluoropyrrolidin-1-yl)methyl]-1H,6H,7H-pyrrolo[2,3-c]pyridin-7-one]	6.00 to 7.00	6.00 to 7.00
C[C@@H]1CN(Cc2cc3c(C4CC4)cn(-c4cccc(C5(c6nncn6C)CC(F)(F)C5)c4)c(=O)c3[nH]2)CCO1 [Example 94, 4-cyclopropyl-6-[3-[3,3-difluoro-1-(4-methyl-1,2,4-triazol-3-yl)cyclobutyl]phenyl]-2-[[(2R)-2-methylmorpholin-4-yl]methyl]-1H-pyrrolo[2,3-c]pyridin-7-one]	> 7.00	> 7.00
C[C@H]1CCCN(Cc2cc3c(C4CC4)cn(-c4cccc([C@]5(c6nncn6C)C[C@H](OC(F)F)C5)c4)c(=O)c3[nH]2)C1 [Example 95, trans-4-cyclopropyl-6-[3-[3-(difluoromethoxy)-1-(4-methyl-1,2,4-triazol-3-yl)cyclobutyl]phenyl]-2-[[(3S)-3-methylpiperidin-1-yl]methyl]-1H-pyrrolo[2,3-c]pyridin-7-one]	> 7.00	> 7.00
C[C@H]1CCCN(Cc2cc3ncn(-c4cccc([C@]5(c6nncn6C(F)F)C[C@H](F)C5)c4)c(=O)c3[nH]2)C1 [Example 149, 2—{[(S)-3-methyl-1-piperidyl]methyl}-6-(m-{(1r,3S)-1-[4-(difluoromethyl)-4H-1,2,4-triazol-3-yl]-3-fluorocyclobutyl}phenyl)-1,6-dihydro-1,4,6-triaza-7-indenone]	> 7.00	> 7.00
